Results: US20080039455A1, “PYRAZOLOPYRIMIDINES AND SALTS THEREOF, PHARMACEUTICAL COMPOSITIONS COMPRISING SAME, METHODS OF PREPARING SAME AND USES OF SAME” (priority 2006, published 2008)
Counter-ions that a name gives are not always drawn.

Target: T1, human recombinant ALK1 (GST fused to ALK1 intracellular domain [His142-Gln503]) (Homo sapiens, UniProt P37023)
T1 construct: GST fused to ALK1 intracellular domain [His142-Gln503]; made in house
T1 sequence (P37023 142-503): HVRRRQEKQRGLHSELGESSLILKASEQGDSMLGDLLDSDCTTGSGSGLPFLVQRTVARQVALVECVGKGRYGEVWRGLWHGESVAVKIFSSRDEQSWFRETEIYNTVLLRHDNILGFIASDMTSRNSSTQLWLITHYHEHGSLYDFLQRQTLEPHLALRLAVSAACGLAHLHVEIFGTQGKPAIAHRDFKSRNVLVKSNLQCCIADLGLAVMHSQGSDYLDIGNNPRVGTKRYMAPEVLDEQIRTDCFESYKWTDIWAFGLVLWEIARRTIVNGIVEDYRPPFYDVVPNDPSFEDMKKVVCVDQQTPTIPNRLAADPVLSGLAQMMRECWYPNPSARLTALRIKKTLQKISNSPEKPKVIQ
Assay: ALK1-Kinase Flashplate-Assay
Assay type: biochemical
Conditions: 0.5 μM ATP, biotinylated α-casein substrate; read-out: Assay 1 (ALK1-Kinase Flashplate-Assay IC50 class)
How it was run: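 Radiometric Flashplate assay at 20 °C: GST-ALK1 intracellular domain (5 ng/well) with 1 μM biotinylated bovine α-casein, 0.5 μM ATP plus [γ-33P]ATP in Tris pH 8.0, 1 mM MnCl2, 1% or 5% DMSO, 60 min. Normalised to no-inhibitor (0%) and 10 mM EDTA (100%); IC50 by 4-parameter fit.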

| Structure (SMILES) | IC50 [nM] |
| --- | --- |
| COc1cccc(-c2cnn3ccc(NCc4ccncc4)nc23)c1 [Example 215, [3-(3-Methoxy-phenyl)-pyrazolo[1,5-a]pyrimidin-5-yl]-pyridin-4-ylmethyl-amine] | 1000 to 10000 |
| COc1ccc(-c2cnn3ccc(NC4CCC(O)CC4)nc23)cc1 (stereo not shown) [Example 155, 4-[3-(4-Methoxy-phenyl)-pyrazolo[1,5-a]pyrimidin-5-ylamino]-cyclohexanol] | 1000 to 10000 |
| FC(F)(F)Oc1cccc(-c2cnn3ccc(NCc4ccncc4)nc23)c1 [Example 113, Pyridin-4-ylmethyl-[3-(3-trifluoromethoxy-phenyl)-pyrazolo[1,5-a]pyrimidin-5-yl]-amine] | < 1000 |
| O=C(O)c1ccc(-c2cnn3ccc(Nc4ccccc4)nc23)cc1 [Example 248, 4-(5-Phenylamino-pyrazolo[1,5-a]pyrimidin-3-yl)-benzoic acid] | 1000 to 10000 |
| Nc1ccc(C(=O)Nc2ccc(Nc3ccn4ncc(-c5ccc(F)cc5)c4n3)cc2)cc1 [Example 400, 4-Amino-N-{4-[3-(4-fluoro-phenyl)-pyrazolo[1,5-a]pyrimidin-5-ylamino]-phenyl}-benzamide] | 1000 to 10000 |
| COc1cc(Nc2ccn3ncc(-c4ccc(O)cc4)c3n2)cc(OC)c1OC [Example 463, 4-[5-(3,4,5-Trimethoxy-phenylamino)-pyrazolo[1,5-a]pyrimidin-3-yl]-phenol] | 1000 to 10000 |
| O=C(NCCO)c1cccc(-c2cnn3ccc(Nc4ccc(N5CCOCC5)cc4)nc23)c1 [Example 130, N-(2-Hydroxy-ethyl)-3-[5-(4-morpholin-4-yl-phenylamino)-pyrazolo[1,5-a]pyrimidin-3-yl]-benzamide] | 1000 to 10000 |
| COc1cccc(-c2cnn3ccc(Nc4ccc(N5CCOCC5)cc4)nc23)c1 [Example 233, [3-(3-Methoxy-phenyl)-pyrazolo[1,5-a]pyrimidin-5-yl]-(4-morpholin-4-yl-phenyl)-amine] | 1000 to 10000 |
| c1ccc(Nc2ccn3ncc(-c4ccsc4)c3n2)cc1 [Example 280, Phenyl-(3-thiophen-3-yl-pyrazolo[1,5-a]pyrimidin-5-yl)-amine] | 1000 to 10000 |
| OCc1cccc(-c2cnn3ccc(NCc4cccnc4)nc23)c1 [Example 170, (3-{5-[(Pyridin-3-ylmethyl)-amino]-pyrazolo[1,5-a]pyrimidin-3-yl}-phenyl)-methanol] | 1000 to 10000 |
| Oc1ccc(-c2cnn3ccc(Nc4ccc5[nH]ccc5c4)nc23)cc1 [Example 18, 4-[5-(1H-Indol-5-ylamino)-pyrazolo[1,5-a]pyrimidin-3-yl]-phenol] | 1000 to 10000 |
| COc1cc(Nc2ccn3ncc(-c4cccc(C(N)=O)c4)c3n2)cc(OC)c1OC [Example 176, 3-[5-(3,4,5-Trimethoxy-phenylamino)-pyrazolo[1,5-a]pyrimidin-3-yl]-benzamide] | 1000 to 10000 |
| COc1ccc(Nc2ccn3ncc(-c4cccc(N(C)C)c4)c3n2)cn1 [Example 332, [3-(3-Dimethylamino-phenyl)-pyrazolo[1,5-a]pyrimidin-5-yl]-(6-methoxy-pyridin-3-yl)-amine] | 1000 to 10000 |
| COc1ccc(-c2cnn3ccc(Nc4ccc(O)cc4)nc23)c(OC)c1 [Example 435, 4-[3-(2,4-Dimethoxy-phenyl)-pyrazolo[1,5-a]pyrimidin-5-ylamino]-phenol] | 1000 to 10000 |
| COc1cncc(-c2cnn3ccc(Nc4ccccc4)nc23)c1 [Example 251, [3-(5-Methoxy-pyridin-3-yl)-pyrazolo[1,5-a]pyrimidin-5-yl]-phenyl-amine] | 1000 to 10000 |
| Cc1ccc(Nc2ccn3ncc(-c4cccc(NS(C)(=O)=O)c4)c3n2)cc1NS(C)(=O)=O [Example 209, N-{5-[3-(3-Methanesulfonylamino-phenyl)-pyrazolo[1,5-a]pyrimidin-5-ylamino]-2-methyl-phenyl]-methanesulfonamide] | < 1000 |
| COc1cc(-c2cnn3ccc(NCCO)nc23)ccc1O [Example 165, 4-[5-(2-Hydroxy-ethylamino)-pyrazolo[1,5-a]pyrimidin-3-yl]-2-methoxy-phenol] | < 1000 |
| COc1cc(-c2cnn3ccc(Nc4ccc(F)c(Cl)c4)nc23)cc(OC)c1OC [Example 259, (3-Chloro-4-fluoro-phenyl)-[3-(3,4,5-trimethoxy-phenyl)-pyrazolo[1,5-a]pyrimidin-5-yl]-amine] | 1000 to 10000 |
| Nc1ccc(C(=O)Nc2ccc(Nc3ccn4ncc(-c5cnn(Cc6ccccc6)c5)c4n3)cc2)cc1 [Example 204, 4-Amino-N-{4-[3-(1-benzyl-1H-pyrazol-4-yl)-pyrazolo[1,5-a]pyrimidin-5-ylamino]-phenyl}-benzamide] | 1000 to 10000 |
| COc1cccc(-c2cnn3ccc(Nc4cc(OC)c(OC)c(OC)c4)nc23)c1 [Example 178, [3-(3-Methoxy-phenyl)-pyrazolo[1,5-a]pyrimidin-5-yl]-(3,4,5-trimethoxy-phenyl)-amine] | 1000 to 10000 |

| Structure (SMILES) | IC50 [nM] |
| --- | --- |
| OC1CCC(Nc2ccn3ncc(-c4ccc(F)cc4)c3n2)CC1 (stereo not shown) [Example 401, 4-[3-(4-Fluoro-phenyl)-pyrazolo[1,5-a]pyrimidin-5-ylamino]-cyclohexanol] | 1000 to 10000 |
| c1ccc(Cn2cc(-c3cnn4ccc(NCc5ccncc5)nc34)cn2)cc1 [Example 219, [3-(1-Benzyl-1H-pyrazol-4-yl)-pyrazolo[1,5-a]pyrimidin-5-yl]-pyridin-4-ylmethyl-amine] | 1000 to 10000 |
| COc1cc(-c2cnn3ccc(Nc4cc(OC)c(OC)c(OC)c4)nc23)ccc1O [Example 424, 2-Methoxy-4-[5-(3,4,5-trimethoxy-phenylamino)-pyrazolo[1,5-a]pyrimidin-3-yl]-phenol] | 1000 to 10000 |
| c1cc(-c2cnn3ccc(Nc4ccc(N5CCOCC5)cc4)nc23)cs1 [Example 467, (4-Morpholin-4-yl-phenyl)-(3-thiophen-3-yl-pyrazolo[1,5-a]pyrimidin-5-yl)-amine] | 1000 to 10000 |
| NC(=O)c1cccc(-c2cnn3ccc(Nc4ccc(N5CCOCC5)cc4)nc23)c1 [Example 232, 3-[5-(4-Morpholin-4-yl-phenylamino)-pyrazolo[1,5-a]pyrimidin-3-yl]-benzamide] | < 1000 |
| c1cc(CNc2ccn3ncc(-c4cn[nH]c4)c3n2)ccn1 [Example 218, [3-(1H-Pyrazol-4-yl)-pyrazolo[1,5-a]pyrimidin-5-yl]-pyridin-4-ylmethyl-amine] | 1000 to 10000 |
| Nc1cccc(-c2cnn3ccc(Nc4ccc(O)cc4)nc23)c1 [Example 338, 4-[3-(3-Amino-phenyl)-pyrazolo[1,5-a]pyrimidin-5-ylamino]-phenol] | 1000 to 10000 |
| N#Cc1ccc(-c2cnn3ccc(NCCO)nc23)cc1 [Example 119, 4-[5-(2-Hydroxy-ethylamino)-pyrazolo[1,5-a]pyrimidin-3-yl]-benzonitrile] | 1000 to 10000 |
| Oc1ccc(Nc2ccn3ncc(-c4ccsc4)c3n2)cc1 [Example 48, 4-(3-Thiophen-3-yl-pyrazolo[1,5-a]pyrimidin-5-ylamino)-phenol] | < 1000 |
| COc1cccc(-c2cnn3ccc(Nc4ccccc4)nc23)c1 [Example 241, [3-(3-Methoxy-phenyl)-pyrazolo[1,5-a]pyrimidin-5-yl]-phenyl-amine] | 1000 to 10000 |
| COc1cc(Nc2ccn3ncc(-c4cccc(C(=O)NCCO)c4)c3n2)cc(OC)c1OC [Example 79, N-(2-Hydroxy-ethyl)-3-[5-(3,4,5-trimethoxy-phenylamino)-pyrazolo[1,5-a]pyrimidin-3-yl]-benzamide] | 1000 to 10000 |
| O=C(O)/C=C/c1cccc(-c2cnn3ccc(NC4CCC(O)CC4)nc23)c1 (stereo not shown) [Example 157, (E)-3-{3-[5-(4-Hydroxy-cyclohexylamino)-pyrazolo[1,5-a]pyrimidin-3-yl]-phenyl}-acrylic acid] | 1000 to 10000 |
| COc1cncc(-c2cnn3ccc(Nc4ccc(C)c(NS(C)(=O)=O)c4)nc23)c1 [Example 107, N-{5-[3-(5-Methoxy-pyridin-3-yl)-pyrazolo[1,5-a]pyrimidin-5-ylamino]-2-methyl-phenyl}-methanesulfonamide] | 1000 to 10000 |
| COc1cc(-c2cnn3ccc(Nc4cccc(Cl)c4)nc23)cc(OC)c1OC [Example 306, (3-Chloro-phenyl)-[3-(3,4,5-trimethoxy-phenyl)-pyrazolo[1,5-a]pyrimidin-5-yl]-amine] | < 1000 |
| c1ccc(Nc2ccn3ncc(-c4cccs4)c3n2)cc1 [Example 242, Phenyl-(3-thiophen-2-yl-pyrazolo[1,5-a]pyrimidin-5-yl)-amine] | 1000 to 10000 |
| COc1cccc(-c2cnn3ccc(Nc4ccc(O)cc4)nc23)c1 [Example 192, 4-[3-(3-Methoxy-phenyl)-pyrazolo[1,5-a]pyrimidin-5-ylamino]-phenol] | < 1000 |
| c1csc(-c2cnn3ccc(NC4CCCNC4)nc23)c1 (stereo not shown) [Example 496, Piperidin-3-yl-(3-thiophen-2-yl-pyrazolo[1,5-a]pyrimidin-5-yl)-amine mono TFA salt] | 1000 to 10000 |
| OCCNc1ccn2ncc(-c3ccc(O)cc3)c2n1 [Example 74, 4-[5-(2-Hydroxy-ethylamino)-pyrazolo[1,5-a]pyrimidin-3-yl]-phenol] | 1000 to 10000 |
| COc1ccc(-c2cnn3ccc(NCc4cccnc4)nc23)cn1 [Example 171, [3-(6-Methoxy-pyridin-3-yl)-pyrazolo[1,5-a]pyrimidin-5-yl]-pyridin-3-ylmethyl-amine] | 1000 to 10000 |
| COc1ccc(Nc2ccn3ncc(-c4cccc(N)c4)c3n2)cn1 [Example 337, [3-(3-Amino-phenyl)-pyrazolo[1,5-a]pyrimidin-5-yl]-(6-methoxy-pyridin-3-yl)-amine] | 1000 to 10000 |
